Earlier results as cited in patent US7799357B2, “In vitro resveratrol-rich callus tissues derived from Vitis thunbergii Sieb. et Zucc and method for producing the same” (Tatung Company, priority 2007, dated 2010).

System: Nothobranchius furzeri
Conditions: short-lived fish Nothobranchius furzeri

Oc1ccc(/C=C/c2cc(O)cc(O)c2)cc1 [Resveratrol, 3,5,4′-trihydroxystilbene]
extension of maximum lifespan (maximum lifespan): 59%
extension of median lifespan (median lifespan): 56%
